How the values were obtained:
SU-DHL-4 cell line = test: Cell proliferation and viability assay using SU-DHL-4 cell line (Cell Titer-Glo); assay type: cell-based; conditions: Homo sapiens, SU-DHL-4, 120 hours
Experimental: The following exemplary assay uses a DLBCL cell line, for example, the SU-DHL-4 cell line (Deutsche Sammlung von Mikroorganismen und Zellkulturen GmbH [DSMZ]: catalogue number ACC-495) at 120 hours post-treatment. The seeding density for SU-DHL-4 can be optimized to ensure assay linearity in 1536-well plates.
Increasing concentrations (0.5 nM to […]) of Compounds 1, 2, and 3 were each spotted in a 20-point dilution fashion (unevenly spaced data points) via an acoustic dispenser (EDC ATS-100) into an empty 1536-well plate. The DMSO concentration was kept constant for a final assay concentration of 0.1% DMSO. Prior to testing, SU-DHL-4 cells were grown in RPMI-1640 (Roswell Park Memorial Institute-1640) medium with 10% FBS (fetal bovine serum: HyClone) and expanded in culture flasks to provide sufficient amounts of starting material. Cells were then diluted to 500 cells per well in a 5 μL volume, and added directly to the compound-spotted 1536-well plates. Cells were allowed to grow for 120 hours in 5% CO2 at 37° C. At the time when exposure of cells to compound began (t0), initial viable cell number was assessed via Cell Titer-Glo® Luminescent Cell Viability Assay at a 1 vol: 2 vol ratio according to manufacturer's instructions (Promega Corporation, Madison, Wis.) by quantifying the level of luminescence generated by adenosine-5′-triphosphate (ATP) present in viable cells. After 120 hours, cell viability of the treated cells was assessed via Cell Titer-Glo© and read for luminescence. All growth inhibition curves were processed and evaluated using Activity Base (IDBS, Alameda, Calif.). Cell viability IC50 values were calculated using a four parameter logistic model (sigmoidal dose-response model): y=(A+((B−A)/(1+((C/x)^D)))) wherein: A=YMin B=YMax C=EC50 D=Hill slope IC50=the concentration of the compound when Y=50% of DMSO control Y=cell viability measured as luminescence unit, and x=concentration of compound.

[1] = test system: OCI-LY10-Luc CNS DLBCL xenograft; test: OCI-LY10-Luc CNS lymphoma xenograft model (intracranial); assay type: in vivo, Nude (nu/nu) mice; conditions: 30 mg/kg QD oral, 3 weeks
Experimental: Antitumor activity of Compound 1 was evaluated as a single agent in OCI-LY10-luc diffuse large B-cell lymphoma (DLBCL) xenografted intracranially into nude mice as a model for central nervous system (CNS) lymphoma.
CNS lymphoma study was conducted with OCI-LY-10 cells transfected with luciferase (OCI-LY-10-Luc). Nude (nu/nu) mice were inoculated intracranially into the right cerebral hemisphere of the brain with OCI-LY10-Luc cells. Following inoculation of animals, the tumors were allowed to grow for 5 days. On day 5 following tumor cell inoculation, the mice were imaged using IVIS100 imaging system. The mice having tumors with an average flux ranging between 1×10^7 and 2×10^7 photons/sec were pooled together and randomized into various treatment groups. Compound 1 was formulated in 0.5% Methyl Cellulose, 0.25% Tween 80 and 50 mM Citrate pH 3 (MCT) in water. The animals were orally administered vehicle (MCT) or Compound 1 once daily (QD) for 3 weeks. Doses of Compound 1 ranged between 3 and 30 mg/kg. The positive control pomalidomide (30 mg/kg, QD) formulated in aqueous 0.5% CMC and 0.25% Tween-80 was administered PO. The animals were imaged for bioluminescence once a week using IVIS100 imaging system and monitored for survival. Statistical analysis was performed using a log-rank test between Compound 1-treated and vehicle-treated control groups.

[2] = test system: WSU-DLCL2 DLBCL xenograft tumors; test: WSU-DLCL2 (DLBCL) xenograft model; assay type: in vivo, female SCID mice; conditions: rituximab 10 mg/kg intraperitoneally BIW, single agent
Experimental: (§1) Female 6- to 8-weeks-old CB17 SCID mice were obtained from Charles River Laboratories. Mice were housed in a barrier facility in micro-isolator cages at 10 animals per cage. Mice were fed with Harlan-Teklad LM-485 Mouse/Rat Sterilizable Diet and autoclaved water ad libitum and maintained on a 12 hours light-dark cycle. Animals were acclimatized to the animal housing facility for a period of 7 days before the beginning of the experiment. All animal studies were performed under protocols approved by Institutional Animal Care and Use Committees.
Suspensions of Compound 1 were pared in aqueous 0.5% Methyl Cellulose, 0.25% Tween 80 and 50 mM Citrate pH 3. The formulations were homogenized using a Teflon pestle and mortar (Potter-Elvehjem tissue grinder). For multiday studies, the compound was freshly formulated every day. Compound 1 and vehicle were administered by oral gavage. Rituximab was diluted in 0.9% saline and administered intraperitoneally.
Tumor cells were injected subcutaneously in the flank region above the right hind legs of female CB17 SCID mice. When the tumor volumes reach to approximately 200 mm^3, mice bearing tumors of 150-300 mm^3 were randomly assigned to receive oral doses of vehicle, Compound 1, rituximab or combination of Compound 1 (5 days on and 2 days off for 3 weeks) and rituximab (twice a week) for the duration of the study. Tumor volumes were determined before the initiation of treatment and were considered as the starting volumes. Tumors were measured twice a week for the duration of the study. The long and short axes of each tumor were measured using a digital caliper in millimeters. The tumor volumes were calculated using the formula: width^2×length/2. The tumor volumes were expressed in cubic millimeters (mm^3).
Xenograft data are expressed as mean±SEM. Statistical analyses were performed using GraphPad Prism. […]
Xenograft study was conducted with female SCID mice bearing WSU-DLCL2 DLBCL xenograft tumors. […] Tumors were measured twice a week using calipers and tumor volumes were calculated using the formula of W^2×L/2. […]

[3] = test system: SUDHL-6 DLBCL xenograft tumors; test: SUDHL-6 (DLBCL) xenograft model; assay type: in vivo, female SCID mice; conditions: rituximab 10 mg/kg intraperitoneally BIW, single agent
Experimental: as §1
(§2) Suspensions of Compound 1 were pared in aqueous 0.5% Methyl Cellulose, 0.25% Tween 80 and 50 mM Citrate pH 3. […]
(§3) Tumor cells were injected subcutaneously in the flank region above the right hind legs of female CB17 SCID mice. […] Tumor volumes were determined before the initiation of treatment and were considered as the starting volumes. Tumors were measured twice a week for the duration of the study. The long and short axes of each tumor were measured using a digital caliper in millimeters. The tumor volumes were calculated using the formula: width^2×length/2. […]
(§4) Xenograft data are expressed as mean±SEM. […]
Xenograft study was conducted with female SCID mice bearing SUDHL-6 DLBCL xenograft tumors. […] Tumors were measured twice a week using calipers and tumor volumes were calculated using the formula of W^2×L/2. […]

[4] = test system: RL follicular lymphoma xenograft tumors; test: RL (follicular lymphoma) xenograft model, alone and in combination with rituximab; assay type: in vivo, female SCID mice; conditions: rituximab 25 mg/kg intraperitoneally BIW, single agent
Experimental: as §1, §2, §3, §4
Xenograft study was conducted with female SCID mice bearing RL follicular lymphoma xenograft tumors. […] Tumors were measured twice a week using calipers and tumor volumes were calculated using the formula of W^2×L/2. […]

O=C1CC[C@@H](N2C(=O)c3cccc(NCc4ccc(CN5CC(N6CCOCC6)C5)cc4F)c3C2=O)C(=O)N1 [Compound 2, (R)-2-(2,6-dioxopiperidin-3-yl)-4-((2-fluoro-4-((3-morpholinoazetidin-1-yl)methyl)benzyl)amino)isoindoline-1,3-dione]
IC50 (SU-DHL-4 cell line): < 200 nM

Nc1cccc2c1C(=O)N(C1CCC(=O)NC1=O)C2=O (stereo not shown) [Pomalidomide, reference compound]
% BLI Inhibition on Day 26 ([1]; relative to vehicle control): 68.8% | Median Survival ([1]; vehicle 35 days): 50 days

Rituximab [reference compound]
tumor volume reduction [2]: 66% | tumor volume reduction [3]: 54% | tumor volume reduction [4]: 56%

O=C1CCC(N2C(=O)c3cccc(NCc4ccc(CN5CC(N6CCOCC6)C5)cc4F)c3C2=O)C(=O)N1 (stereo not shown) [Compound 3, 2-(2,6-dioxopiperidin-3-yl)-4-((2-fluoro-4-((3-morpholinoazetidin-1-yl)methyl)benzyl)amino)isoindoline-1,3-dione]
IC50 (SU-DHL-4 cell line): < 200 nM

Reference: US11390617B2, “Methods of treating non-Hodgkin lymphoma using 2-(2,6-dioxopiperidin-3-yl)-4-((2-fluoro-4-((3-morpholinoazetidin-1-yl)methyl)benzyl)amino)isoindoline-1,3-dione” (Celgene Corporation, priority 2019, dated 2022)
